The supplement of paper PMC10307832

Key:
Assay in all cases: relative viability (nuclei count vs DMSO), 5 days (fraction); higher = more cells survive
[1] = compound: CCN1C(=O)C2=CC(=C(N=C2N(C1=O)C3CC3)N)C(=O)N + CC(=O)Nc1cccc(-n2c(=O)n(C3CC3)c(=O)c3c(Nc4ccc(I)cc4F)n(C)c(=O)c(C)c32)c1 [Trametinib] (partner 0.02 µM)
Procedure, shortened: (§1)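 Five library-drug doses in √10 steps were combined with a fixed anchor-drug dose, or a single drug was given alone, by pin tool to lung cancer cell lines in 1536-well plates the day after seeding. Nuclei were stained and counted after 5 days. Relative viability is the nuclei count in treated wells over that in vehicle wells, taken as the median of duplicate plates.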

[2] = compound: CCN1C(=O)C2=CC(=C(N=C2N(C1=O)C3CC3)N)C(=O)N + CCNC(=O)c1noc(-c2cc(C(C)C)c(O)cc2O)c1-c1ccc(CN2CCOCC2)cc1 [Luminespib] (partner 0.01 µM)
Procedure, shortened: as §1

[3] = compound: CCN1C(=O)C2=CC(=C(N=C2N(C1=O)C3CC3)N)C(=O)N + COc1cccc2cc(-c3nc([C@H]4CC[C@H](C(=O)O)CC4)n4ncnc(N)c34)[nH]c12 [OSI-027] (partner 0.5 µM)
Procedure, shortened: as §1

[4] = compound: CCN1C(=O)C2=CC(=C(N=C2N(C1=O)C3CC3)N)C(=O)N + NC(=O)Nc1cc(-c2cccc(F)c2)sc1C(=O)N[C@H]1CCCNC1 [AZD7762] (partner 0.2 µM)
Procedure, shortened: as §1

[5] = compound: CCN1C(=O)C2=CC(=C(N=C2N(C1=O)C3CC3)N)C(=O)N + O=C(CCCCCCC(=O)Nc1ccccc1)NO [Vorinostat] (partner 1 µM)
Procedure, shortened: as §1

Cell Line	relative viability ([1]; first compound 0.253 µM)	relative viability ([1]; first compound 2.53 µM)	relative viability ([1]; first compound 8 µM)	relative viability ([2]; first compound 0.253 µM)	relative viability ([2]; first compound 0.8 µM)	relative viability ([2]; first compound 2.53 µM)	relative viability ([2]; first compound 8 µM)	relative viability ([3]; first compound 0.253 µM)	relative viability ([3]; first compound 0.8 µM)	relative viability ([3]; first compound 2.53 µM)	relative viability ([3]; first compound 8 µM)	relative viability ([4]; first compound 0.253 µM)	relative viability ([4]; first compound 2.53 µM)	relative viability ([4]; first compound 8 µM)	relative viability ([5]; first compound 0.253 µM)	relative viability ([5]; first compound 2.53 µM)	relative viability ([5]; first compound 8 µM)	relative viability ([1]; first compound 0.8 µM)	relative viability ([4]; first compound 0.8 µM)	relative viability ([5]; first compound 0.8 µM)
NCI-H2405	0.689	0.661	0.602	0.668	0.844	0.755	0.652	0.664	0.667	0.604	0.616	0.868	0.928	0.725	1.21	1.26	1.14	–	–	–
NCI-H3122	0.224	0.266	0.224	0.0925	0.0714	0.0957	0.0756	0.888	0.948	0.905	0.93	0.922	1.02	0.983	0.912	0.968	0.988	0.21	0.967	0.975
PC-3 [JPC-3]	0.686	0.686	0.736	0.661	0.709	0.663	0.823	0.746	0.85	0.735	0.791	0.813	0.966	0.748	0.93	1.22	1.08	–	–	–
PC-14	0.743	0.768	0.715	0.144	0.159	0.158	0.119	0.856	0.799	0.831	0.907	0.397	0.513	0.294	0.621	0.679	0.779	0.721	0.288	0.743
RERF-LC-KJ	0.697	0.751	0.847	1.27	1.17	1.22	1.14	0.6	0.638	0.584	0.632	1.02	1.6	1	0.678	0.807	0.838	0.793	0.826	0.737
SW 900	0.81	0.75	0.641	0.217	0.193	0.174	0.166	0.568	0.531	0.475	0.731	0.601	0.635	0.633	0.434	0.524	0.538	0.864	0.643	0.582
